Patent US20130045500A1, “CELL EVALUATION METHOD” (NATIONAL CANCER CENTER, priority 2011, published 2013)

Tested on: human breast-cancer-derived cell line T47D
Assay: Survival rate by ATP assay (CellTiter-Glo) and number of spheroids on NanoCulture plate
Format: cell-based
Conditions: trastuzumab 10 μg/mL, paclitaxel 6.0 μg/mL, 7 days after medicine was added, expected effects confirmed in b72 (FIG. 8, FIG. 9)
Protocol: A human breast-cancer-derived cell line T47D was suspended in a culture medium (NCM-M made by SCIVAX Co., Ltd.), and seeded on a NanoCulture (registered mark) plate (made by SCIVAX Co., Ltd., 96-well plate, material of concavo-convex structure surface: cyclic-olefin polymer (COP), planar shape of concavo-convex structure: regular hexagon, width between unit structures (line width): 700 nm, minimum internal diameter of unit structure: 3 μm, and depth: 1 μm) at 1×10^4 cells/well, and incubated at 37° C. and 5% CO2.
The survival rate of the cell on the tenth day (the seventh day after medicines were added) was evaluated based on the assay of the ATP in the cell using CellTiter-Glo Luminescent Cell Viability Assay (Promega KK.) and calculated as a relative value, and the results are shown in FIG. 8.

CC(=O)O[C@H]1C(=O)[C@@]2(C)[C@H]([C@H](OC(=O)c3ccccc3)[C@]3(O)C[C@H](OC(=O)[C@H](O)[C@@H](NC(=O)c4ccccc4)c4ccccc4)C(C)=C1C3(C)C)[C@]1(OC(C)=O)CO[C@@H]1C[C@@H]2O [paclitaxel]
antitumor effect (ATP amount in the cell and number of spheroids): shows an antitumor effect
